Measurements published in PubChem BioAssay AID248 (DTP/NCI, 2004).
Where “and” joins values, the source holds several entries; their conditions need not be identical. Equal values may be shown once. Toxic doses and inconclusive results are not listed. Rule as the data show it: active = T/C of 150% or more; inactive = T/C below 125%.

Test system: L1210 leukemia ip in BDF1 mice, survival T/C
Assay: NCI In Vivo Anticancer Drug Screen. Data for tumor model L1210 Leukemia (intraperitoneal) in B6D2F1 (BDF1) mice
Conditions: endpoint: mean survival time, higher = longer survival
Procedure, shortened: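 Survival endpoint. Drug-treated group vs vehicle group, expressed as T divided by C. Tumor passaged by transplantation.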

[1] = dose: 100.0 mg/kg/injection, schedule: Q01DX009 (ip), vehicle: saline
[2] = dose: 100.0 mg/kg/injection, schedule: Q04DX003 (ip), vehicle: saline
[3] = dose: 200.0 mg/kg/injection, schedule: Q01DX009 (ip), vehicle: saline
[4] = dose: 200.0 mg/kg/injection, schedule: Q04DX003 (ip), vehicle: saline
[5] = dose: 400.0 mg/kg/injection, schedule: Q01DX009 (ip), vehicle: saline
[6] = dose: 400.0 mg/kg/injection, schedule: Q04DX003 (ip), vehicle: saline
[7] = dose: 100.0 mg/kg/injection, schedule: Q04DX003 (ip), vehicle: Klucel (hydroxypropylcellulose) (HPC)
[8] = dose: 200.0 mg/kg/injection, schedule: Q04DX003 (ip), vehicle: Klucel (hydroxypropylcellulose) (HPC)
[9] = dose: 400.0 mg/kg/injection, schedule: Q04DX003 (ip), vehicle: Klucel (hydroxypropylcellulose) (HPC)
[10] = dose: 100.0 mg/kg/injection, schedule: Q04DX002 (ip), vehicle: saline with Tween-80
[11] = dose: 200.0 mg/kg/injection, schedule: Q04DX002 (ip), vehicle: saline with Tween-80
[12] = dose: 400.0 mg/kg/injection, schedule: Q04DX002 (ip), vehicle: saline with Tween-80
[13] = dose: 25.0 mg/kg/injection, schedule: Q01DX009 (ip), vehicle: saline
[14] = dose: 50.0 mg/kg/injection, schedule: Q01DX009 (ip), vehicle: saline
[15] = dose: 100.0 mg/kg/injection, schedule: Q01DX001 (ip), vehicle: saline

Measured: T/C

COC(=O)C1(C)CCc2c(ccc3ccccc23)C1=O (centres undefined)
inactive: [1] 100 % of control | [2] 97 % of control | [3] 102 % of control | [4] 94 % of control | [5] 99 % of control | [6] 102 % of control

CCCCCCCCCCCCCCCCOc1ccccc1/C=C/C(=O)O
inactive: [7] 91 % of control | [8] 88 % of control | [9] 95 % of control

COc1ccc(OCC(=O)N2CCCCCC2)cc1
inactive: dose: 50.0 mg/kg/injection, schedule: Q01DX001 (ip), vehicle: carboxymethylcellulose (CMC) 100 % of control | dose: 50.0 mg/kg/injection, schedule: Q01DX009 (ip), vehicle: carboxymethylcellulose (CMC) 94 % of control | dose: 50.0 mg/kg/injection, schedule: Q04DX003 (ip), vehicle: carboxymethylcellulose (CMC) 103 % of control | dose: 100.0 mg/kg/injection, schedule: Q01DX001 (ip), vehicle: carboxymethylcellulose (CMC) 106 % of control | dose: 100.0 mg/kg/injection, schedule: Q01DX009 (ip), vehicle: carboxymethylcellulose (CMC) 94 % of control and 96 % of control | dose: 100.0 mg/kg/injection, schedule: Q04DX002 (ip), vehicle: carboxymethylcellulose (CMC) 91 % of control | dose: 100.0 mg/kg/injection, schedule: Q04DX003 (ip), vehicle: carboxymethylcellulose (CMC) 100 % of control | dose: 200.0 mg/kg/injection, schedule: Q01DX001 (ip), vehicle: carboxymethylcellulose (CMC) 109 % of control | dose: 200.0 mg/kg/injection, schedule: Q01DX009 (ip), vehicle: carboxymethylcellulose (CMC) 97 % of control and 100 % of control | dose: 200.0 mg/kg/injection, schedule: Q04DX002 (ip), vehicle: carboxymethylcellulose (CMC) 105 % of control | dose: 200.0 mg/kg/injection, schedule: Q04DX003 (ip), vehicle: carboxymethylcellulose (CMC) 102 % of control | dose: 400.0 mg/kg/injection, schedule: Q04DX002 (ip), vehicle: carboxymethylcellulose (CMC) 96 % of control

COc1cc(/C=N/NC(=O)CCCCCCCCC(=O)N/N=C/c2ccc(O)c(OC)c2)ccc1O
inactive: dose: 50.0 mg/kg/injection, schedule: Q01DX009 (ip), vehicle: saline with Tween-80 95 % of control and 97 % of control | dose: 100.0 mg/kg/injection, schedule: Q01DX001 (ip), vehicle: saline with Tween-80 92 % of control | dose: 100.0 mg/kg/injection, schedule: Q01DX009 (ip), vehicle: saline with Tween-80 93 % of control and 91 % of control | [10] 101 % of control | dose: 100.0 mg/kg/injection, schedule: Q04DX003 (ip), vehicle: saline with Tween-80 87 % of control | dose: 200.0 mg/kg/injection, schedule: Q01DX001 (ip), vehicle: saline with Tween-80 95 % of control | dose: 200.0 mg/kg/injection, schedule: Q01DX009 (ip), vehicle: saline with Tween-80 94 % of control and 100 % of control | [11] 93 % of control and 103 % of control | dose: 200.0 mg/kg/injection, schedule: Q04DX003 (ip), vehicle: saline with Tween-80 97 % of control | dose: 400.0 mg/kg/injection, schedule: Q01DX001 (ip), vehicle: saline with Tween-80 92 % of control | [12] 90 % of control | dose: 400.0 mg/kg/injection, schedule: Q04DX003 (ip), vehicle: saline with Tween-80 101 % of control

CCC1COC(=O)N1 (centres undefined)
inactive: [13] 102 % of control | dose: 50.0 mg/kg/injection, schedule: Q01DX001 (ip), vehicle: saline 95 % of control | [14] 105 % of control | [15] 100 % of control

NC(=O)c1[nH]cnc1/N=N/N1CCCC1
inactive: dose: 125.0 mg/kg/injection, schedule: Q01DX Z (ip), vehicle: carboxymethylcellulose (CMC) 103 % of control | dose: 375.0 mg/kg/injection, schedule: Q01DX Z (ip), vehicle: carboxymethylcellulose (CMC) 105 % of control

CCC(C)C(NC(C)=O)C(=O)O (centres undefined)
inactive: [10] 102 % of control | [7] 88 % of control | [11] 94 % of control | [8] 91 % of control | [12] 102 % of control | [9] 89 % of control

CC(=O)NCCCCCC(=O)O
inactive: [13] 97 % of control | [14] 105 % of control | dose: 50.0 mg/kg/injection, schedule: Q04DX003 (ip), vehicle: saline 102 % of control | dose: 100.0 mg/kg/injection, schedule: Q01DX009 (ip), vehicle: Klucel (hydroxypropylcellulose) (HPC) 98 % of control and 90 % of control | [1] 108 % of control | [7] 101 % of control and 88 % of control | [2] 103 % of control | dose: 200.0 mg/kg/injection, schedule: Q01DX009 (ip), vehicle: Klucel (hydroxypropylcellulose) (HPC) 97 % of control and 101 % of control | [3] 100 % of control | [8] 101 % of control and 90 % of control | [4] 104 % of control | dose: 400.0 mg/kg/injection, schedule: Q01DX009 (ip), vehicle: Klucel (hydroxypropylcellulose) (HPC) 101 % of control | [5] 100 % of control | [9] 95 % of control and 101 % of control | [6] 96 % of control | dose: 800.0 mg/kg/injection, schedule: Q04DX003 (ip), vehicle: saline 95 % of control

CC1=NC(C#N)=C(C#N)N=C(C)C1
inactive: dose: 6.25 mg/kg/injection, schedule: Q01DX009 (ip), vehicle: Klucel (hydroxypropylcellulose) (HPC) 107 % of control | dose: 12.5 mg/kg/injection, schedule: Q01DX009 (ip), vehicle: Klucel (hydroxypropylcellulose) (HPC) 98 % of control | dose: 25.0 mg/kg/injection, schedule: Q01DX009 (ip), vehicle: Klucel (hydroxypropylcellulose) (HPC) 119 % of control | dose: 50.0 mg/kg/injection, schedule: Q01DX009 (ip), vehicle: Klucel (hydroxypropylcellulose) (HPC) 107 % of control

COc1cc2ccncc2cc1OCc1ccccc1
inactive: [13] 104 % of control | [14] 96 % of control | [1] 102 % of control

COc1cc2c(c(OC)c1OC)-c1ccc(N)c(=O)cc1[C@@H](NC(C)=O)CC2
inactive: dose: 0.5 mg/kg/injection, schedule: Q01DX015 (ip), vehicle: saline 116 % of control | dose: 1.0 mg/kg/injection, schedule: Q01DX015 (ip), vehicle: saline 118 % of control | dose: 2.0 mg/kg/injection, schedule: Q01DX001 (ip), vehicle: saline 112 % of control | dose: 2.0 mg/kg/injection, schedule: Q01DX015 (ip), vehicle: saline 92 % of control | dose: 4.0 mg/kg/injection, schedule: Q01DX001 (ip), vehicle: saline 100 % of control | dose: 4.0 mg/kg/injection, schedule: Q01DX015 (ip), vehicle: saline 116 % of control | dose: 8.0 mg/kg/injection, schedule: Q01DX001 (ip), vehicle: saline 98 % of control | dose: 16.0 mg/kg/injection, schedule: Q01DX001 (ip), vehicle: saline 104 % of control

CC(=O)OCC1OC(Sc2cc(Cl)ccc2Cl)C(OC(C)=O)C(OC(C)=O)C1OC(C)=O (centres undefined)
inactive: [15] 100 % of control | dose: 200.0 mg/kg/injection, schedule: Q01DX001 (ip), vehicle: saline 94 % of control | dose: 400.0 mg/kg/injection, schedule: Q01DX001 (ip), vehicle: saline 100 % of control
